Reference: ChEMBL document CHEMBL1201862, “PubChem BioAssay data set” (2004)
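Exposure lasted 48 hours, with cells grown in 96-well plates and compounds tested at five concentrations. GI50: concentration for 50% inhibition of growth.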 Activity calls are given as the source filed them. Rule as the data show it: active = GI50 up to about 1.1 µM and inactive = higher.

Legend:
Assay in all cases: NCI anticancer screen, dose series, 48 h
MCF7 = tested on: MCF7
UACC-62 = tested on: UACC-62
ACHN = tested on: ACHN
UO-31 = tested on: UO-31
UACC-257 = tested on: UACC-257
LOX IMVI = tested on: LOX IMVI
NCI-H460 = tested on: NCI-H460
DU-145 = tested on: DU-145
HOP-92 = tested on: HOP-92
SN12C = tested on: SN12C
T47D = tested on: T47D
HCT-116 = tested on: HCT-116
IGROV-1 = tested on: IGROV-1
OVCAR-4 = tested on: OVCAR-4
RXF 393 = tested on: RXF 393
SF-295 = tested on: SF-295
NCI-H23 = tested on: NCI-H23
MDA-N = tested on: MDA-N
HCT-15 = tested on: HCT-15
LXFL 529 = tested on: LXFL 529

Measured: GI50

N#C/C(=C\c1cc(O)c(O)c(O)c1)C(N)=O
inactive: MCF7 > 39.4 µM | UACC-62 72.6 µM | ACHN > 93.8 µM | UO-31 > 74.1 µM | UACC-257 > 100 µM | LOX IMVI 41.3 µM | NCI-H460 > 79.3 µM | DU-145 97.7 µM | HOP-92 98.2 µM | SN12C > 84.3 µM | T47D > 100 µM | HCT-116 > 70.1 µM | IGROV-1 > 100 µM | OVCAR-4 74.8 µM | RXF 393 > 100 µM | SF-295 > 100 µM | NCI-H23 > 100 µM | MDA-N > 62.4 µM | LXFL 529 > 100 µM
> 74.5 µM: HCT-15

C/C(=N\NC(=S)N1CCC1)c1ccccn1
active: MCF7 0.0015 µM | UACC-62 < 0.016 µM | ACHN 0.01 µM | UO-31 0.427 µM | UACC-257 < 0.0229 µM | LOX IMVI < 0.0119 µM | NCI-H460 < 0.0184 µM | DU-145 0.891 µM | HOP-92 0.0443 µM | T47D 0.00137 µM | HCT-116 0.01 µM | IGROV-1 0.01 µM | RXF 393 0.163 µM | SF-295 0.01 µM | NCI-H23 0.01 µM | MDA-N 0.0682 µM | LXFL 529 0.01 µM
< 0.0219 µM: HCT-15
